These results are taken from ChEMBL document CHEMBL3244002, “Activity-electroreduction relationship of antimicrobial metronidazole analogues” (J Med Chem, 1978).

In brackets after ≈: the same amount, converted by molar mass.

One series deals with Trichomonas vaginalis. Nature of the series: Antimicrobial activity against Trichomonas vaginalis ATCC 30001 assessed as growth inhibition after 48 hrs under anaerobic conditions by microscopic analysis. It is filed as functional. The note with it: ATCC 30001, 48 h.
Series [1] in a line: 1-Octanol-saturated McIlvaine buffer partition coefficient, log P of the compound at 80 uM at pH 6.01 by spectrophotometric analysis. The series is classed as physicochemical. The following applies: 1-octanol/McIlvaine buffer.
A further series concerns Clostridium pasteurianum. Nature of the series: Antimicrobial activity against Clostridium pasteurianum ATCC 6013 assessed as growth inhibition after 24 hrs under anaerobic conditions by microscopic analysis. It is filed as functional. The note with it: ATCC 6013, 24 h.
Series [2] is described as follows: Effect on magnitude of electroreduction potential (Ep) of clostridial ferridoxin by alternating current polarographic technique. It is filed as physicochemical.
Series [3] in a line: Decrease in current height for electroreduction of S-Fe bonding in clostridial ferridoxin assessed as alternating current reduction peak potential at 32 uM by polarographic technique. The series is classed as physicochemical.

Turning to `Cc1ncc([N+](=O)[O-])n1CCCl`, the values for the MIC in the series with Trichomonas vaginalis and in the series on Clostridium pasteurianum were 0.195 µg/mL (≈ 1.03 µM) and 0.39 µg/mL (≈ 2.06 µM), respectively. In addition, the logD (usually lipophilicity at a set pH, counting ionised and neutral species) at 80 µM in series [1] worked out at 0.879.

As to `CC(=O)OCCn1c([N+](=O)[O-])cnc1C`, the results for the MIC in the series on Trichomonas vaginalis and in the series on Clostridium pasteurianum were 0.098 µg/mL (≈ 0.46 µM) and 0.39 µg/mL (≈ 1.83 µM), respectively. Further, the pH-dependent lipophilicity (logD) at 80 µM in series [1] stood at 0.301.

Turning to `Cc1ncc([N+](=O)[O-])n1CCSC(=S)N(C)C`, the minimum inhibitory concentration (MIC) (as a rule, the lowest concentration that inhibits growth of the organism) was found to be 0.195 µg/mL (≈ 0.711 µM) with Trichomonas vaginalis and 0.683 µg/mL (≈ 2.49 µM) in the series with Clostridium pasteurianum. Further, the Activity result in series [2] is reported as “Not Active”; in series [3] it was 0.533 V. This molecule came in with a log distribution coefficient (logD) at 80 µM in series [1] of 1.28.

On to `Cc1ncc([N+](=O)[O-])n1CCN=[N+]=[N-]`, for which the MIC in the series on Trichomonas vaginalis was determined as 0.341 µg/mL (≈ 1.74 µM); with Clostridium pasteurianum, 0.39 µg/mL (≈ 1.99 µM). Besides, the pH-dependent lipophilicity (logD) at 80 µM in series [1] is 0.755.

For `Cc1ncc([N+](=O)[O-])n1CCOC(=O)N(C)C`, the minimum inhibitory concentration (MIC) in the series with Trichomonas vaginalis was determined as 0.195 µg/mL (≈ 0.805 µM); with Clostridium pasteurianum it was 0.39 µg/mL (≈ 1.61 µM). The molecule further returned a logD at 80 µM in series [1] of 0.455.

For the molecule `Cc1ncc([N+](=O)[O-])n1CCS(=O)(=O)[O-].[Na+]`, the values for the MIC in the series on Trichomonas vaginalis and with Clostridium pasteurianum were 6.25 µg/mL and 1.17 µg/mL, respectively. In addition, in series [1], the log distribution coefficient (logD) at 80 µM was -2.05.

As for `CC(=O)NCCn1c([N+](=O)[O-])cnc1C`, the MIC turned out to be 10.9 µg/mL (≈ 51.6 µM) in the series with Trichomonas vaginalis and 0.78 µg/mL (≈ 3.68 µM) in the series on Clostridium pasteurianum. The molecule also showed a logD at 80 µM in series [1] of -0.469.

In the case of `Cc1ncc([N+](=O)[O-])n1CCSc1ccc(Cl)cc1`, the MIC with Trichomonas vaginalis came out at 12.5 µg/mL (≈ 42 µM); with Clostridium pasteurianum, 5.47 µg/mL (≈ 18.4 µM). Besides, in series [1], the logD at 80 µM was 1.47.

As for `Cc1ncc([N+](=O)[O-])n1CCO` [METRONIDAZOLE], the MIC in the series on Trichomonas vaginalis was 0.098 µg/mL (≈ 0.573 µM); in the series with Clostridium pasteurianum, 0.244 µg/mL (≈ 1.43 µM). Further, the logD at 80 µM in series [1] is -0.051.
